From patent US10501425B2, “Microbiocidal oxadiazole derivatives” (SYNGENTA PARTICIPATIONS AG, priority 2015, dated 2019)

How the values were obtained:
[1] = tested on: Puccinia recondita f. Sp. Tritici; experiment: Puccinia recondita f. sp. tritici / wheat / leaf disc preventative (brown rust); format: in vivo; conditions: foliar, 200 ppm in the applied formulation, wheat leaf segments cv. Kanzler, preventative (inoculated 1 day after application), compared to untreated, read-out: disease control
In short: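 Compound, diluted from DMSO solution into aqueous 0.025% Tween20, is sprayed at 200 ppm onto cut wheat segments (cv. Kanzler) placed on water agar. One day on, segments receive a fungal spore suspension and are incubated at 19° C., 75% rh, 12 h photoperiod, with % control vs untreated scored at 7–9 days.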

[2] = tested on: Puccinia recondita f. Sp. Tritici; experiment: Puccinia recondita f. sp. tritici / wheat / leaf disc curative (brown rust); format: in vivo; conditions: foliar, 24 h, 200 ppm in the applied formulation, wheat leaf segments cv. Kanzler, curative (applied 1 day after inoculation), compared to untreated, read-out: disease control
In short: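 Curative test: wheat leaf segments cv. Kanzler on agar inoculated with spore suspension, kept dark at 19 °C/75% RH, then sprayed 1 day post-inoculation with compound diluted in water. Incubated at 19 °C, 75% RH, 12 h light/dark; percent disease control versus untreated scored 6–8 days after application.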

Phakopsora pachyrhizi = Phakopsora pachyrhizi / soybean / leaf disc preventative (Asian soybean rust); format: in vivo; conditions: foliar, 200 ppm in the applied formulation, soybean leaf disks, compared to untreated, read-out: disease control
Description: Leaf disks or leaf segments of various plant species are cut from plants grown in a greenhouse. The cut leaf disks or segments are placed in multiwell plates (24-well format) onto water agar. The leaf disks are sprayed with a test solution before (preventative) or after (curative) inoculation. Compounds to be tested are prepared as DMSO solutions (max. 10 mg/ml) which are diluted to the appropriate concentration with 0.025% Tween20 just before spraying. The inoculated leaf disks or segments are incubated under defined conditions (temperature, relative humidity, light, etc.) according to the respective test system. A single evaluation of disease level is carried out 3 to 14 days after inoculation, depending on the pathosystem. Percent disease control relative to the untreated check leaf disks or segments is then calculated.
Soybean leaf disks are placed on water agar in multiwell plates (24-well format) and sprayed with the formulated test compound diluted in water. One day after application leaf discs are inoculated by spraying a spore suspension on the lower leaf surface. After an incubation period in a climate cabinet of 24-36 hours in darkness at 20° C. and 75% rh leaf disc are kept at 20° C. with 12 h light/day and 75% rh. The activity of a compound is assessed as percent disease control compared to untreated when an appropriate level of disease damage appears in untreated check leaf disks (12 to 14 days after application).
The following compounds at 200 ppm in the applied formulation give at least 80% disease control in this test when compared to untreated control leaf disks under the same conditions, which show extensive disease development.

[3] = tested on: Glomerella lacenarium (Colletotrichum lagenarium); experiment: Glomerella lagenarium liquid culture / cucumber / preventative (anthracnose); format: cell-based; conditions: Colletotrichum orbiculare; 20 ppm in the applied formulation; liquid culture (PDB), growth inhibition measured photometrically 3 to 4 days after application; compared to untreated; read-out: disease control
In short: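 Conidia from cryogenic storage were mixed into potato dextrose broth. This was added to compound diluted from DMSO into 0.025% Tween20, tested at 20 ppm. Plates were incubated in the dark at 24 °C and 96% relative humidity, and growth was read photometrically after 2–7 days as % activity versus untreated check.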

CC(C)C(=O)NCc1ccc(-c2noc(C(F)(F)F)n2)cc1F [Compound 1.35, N-[[2-fluoro-4-[5-(trifluoromethyl)-1,2,4-oxadiazol-3-yl]phenyl]methyl]-2-methyl-propanamide]
≥ 80%: pest or weed control at 200 ppm [1] | pest or weed control at 200 ppm [2] | pest or weed control at 200 ppm (Phakopsora pachyrhizi) | inhibition of growth at 20 ppm [3]

CCCC(=O)NCc1ccc(-c2noc(C(F)(F)F)n2)cc1F [Compound 1.36, N-[[2-fluoro-4-[5-(trifluoromethyl)-1,2,4-oxadiazol-3-yl]phenyl]methyl]butanamide]
≥ 80%: pest or weed control at 200 ppm [1] | pest or weed control at 200 ppm [2] | pest or weed control at 200 ppm (Phakopsora pachyrhizi) | inhibition of growth at 20 ppm [3]

COCC(=O)NCc1ccc(-c2noc(C(F)(F)F)n2)cc1F [Compound 1.38, N-[[2-fluoro-4-[5-(trifluoromethyl)-1,2,4-oxadiazol-3-yl]phenyl]methyl]-2-methoxy-acetamide]
≥ 80%: pest or weed control at 200 ppm [1] | pest or weed control at 200 ppm [2] | pest or weed control at 200 ppm (Phakopsora pachyrhizi) | inhibition of growth at 20 ppm [3]

CCC(C)C(=O)NCc1ccc(-c2noc(C(F)(F)F)n2)c(F)c1 (centres unmarked) [Compound 1.39, N-[[3-fluoro-4-[5-(trifluoromethyl)-1,2,4-oxadiazol-3-yl]phenyl]methyl]-2-methyl-butanamide]
≥ 80%: pest or weed control at 200 ppm [1] | pest or weed control at 200 ppm [2] | pest or weed control at 200 ppm (Phakopsora pachyrhizi) | inhibition of growth at 20 ppm [3]

CCC(C)C(=O)NCc1ccc(-c2noc(C(F)(F)F)n2)cc1F (centres unmarked) [Compound 1.41, N-[[2-fluoro-4-[5-(trifluoromethyl)-1,2,4-oxadiazol-3-yl)phenyl]methyl]-2-methyl-butanamide]
≥ 80%: pest or weed control at 200 ppm [1] | pest or weed control at 200 ppm [2] | pest or weed control at 200 ppm (Phakopsora pachyrhizi) | inhibition of growth at 20 ppm [3]

O=C(CC(F)(F)F)NCc1ccc(-c2noc(C(F)(F)F)n2)c(F)c1 [Compound 1.44, 3,3,3-trifluoro-N-[[3-fluoro-4-[5-(trifluoromethyl)-1,2,4-oxadiazol-3-yl]phenyl]methyl]propanamide]
≥ 80%: pest or weed control at 200 ppm [1] | pest or weed control at 200 ppm [2] | pest or weed control at 200 ppm (Phakopsora pachyrhizi) | inhibition of growth at 20 ppm [3]

O=C(CC(F)(F)F)NCc1ccc(-c2noc(C(F)(F)F)n2)cc1F [Compound 1.46, 3,3,3-trifluoro-N-[[2-fluoro-4-[5-(trifluoromethyl)-1,2,4-oxadiazol-3-yl]phenyl]methyl]propanamide]
≥ 80%: pest or weed control at 200 ppm [1] | pest or weed control at 200 ppm [2] | pest or weed control at 200 ppm (Phakopsora pachyrhizi) | inhibition of growth at 20 ppm [3]

CC(=O)NCc1ccc(-c2noc(C(F)(F)F)n2)c(F)c1 [Compound 1.47, N-[[3-fluoro-4-[5-(trifluoromethyl)-1,2,4-oxadiazol-3-yl]phenyl]methyl]acetamide]
≥ 80%: pest or weed control at 200 ppm [1] | pest or weed control at 200 ppm [2] | pest or weed control at 200 ppm (Phakopsora pachyrhizi) | inhibition of growth at 20 ppm [3]

CC(=O)NCc1ccc(-c2noc(C(F)(F)F)n2)cc1F [Compound 1.48, N-[[2-fluoro-4-[5-(trifluoromethyl)-1,2,4-oxadiazol-3-yl]phenyl]methyl]acetamide]
≥ 80%: pest or weed control at 200 ppm [1] | pest or weed control at 200 ppm [2] | pest or weed control at 200 ppm (Phakopsora pachyrhizi) | inhibition of growth at 20 ppm [3]

CC(C)C(=O)NCc1ccc(-c2noc(C(F)(F)F)n2)c(F)c1F [Compound 1.49, N-[[2,3-difluoro-4-[5-(trifluoromethyl)-1,2,4-oxadiazol-3-yl]phenyl]methyl]-2-methyl-propanamide]
≥ 80%: pest or weed control at 200 ppm [1] | pest or weed control at 200 ppm [2] | pest or weed control at 200 ppm (Phakopsora pachyrhizi) | inhibition of growth at 20 ppm [3]

CCCC(=O)NCc1ccc(-c2noc(C(F)(F)F)n2)c(F)c1F [Compound 1.51, N-[[2,3-difluoro-4-[5-(trifluoromethyl)-1,2,4-oxadiazol-3-yl]phenyl]methyl]butanamide]
≥ 80%: pest or weed control at 200 ppm [1] | pest or weed control at 200 ppm [2] | pest or weed control at 200 ppm (Phakopsora pachyrhizi) | inhibition of growth at 20 ppm [3]

COCC(=O)NCc1ccc(-c2noc(C(F)(F)F)n2)c(F)c1F [Compound 1.56, N-[[2,3-difluoro-4-[5-(trifluoromethyl)-1,2,4-oxadiazol-3-yl]phenyl]methyl]-2-methoxy-acetamide]
≥ 80%: pest or weed control at 200 ppm [1] | pest or weed control at 200 ppm [2] | pest or weed control at 200 ppm (Phakopsora pachyrhizi) | inhibition of growth at 20 ppm [3]

O=C(CC(F)(F)F)NCc1ccc(-c2noc(C(F)(F)F)n2)c(F)c1F [Compound 1.63, N-[[2,3-difluoro-4-[5-(trifluoromethyl)-1,2,4-oxadiazol-3-yl]phenyl]methyl]-3,3,3-trifluoro-propanamide]
≥ 80%: pest or weed control at 200 ppm [1] | pest or weed control at 200 ppm [2] | pest or weed control at 200 ppm (Phakopsora pachyrhizi) | inhibition of growth at 20 ppm [3]

CC(=O)NCc1ccc(-c2noc(C(F)(F)F)n2)c(F)c1F [Compound 1.65, N-[[2,3-difluoro-4-[5-(trifluoromethyl)-1,2,4-oxadiazol-3-yl]phenyl]methyl]acetamide]
≥ 80%: pest or weed control at 200 ppm [1] | pest or weed control at 200 ppm [2] | pest or weed control at 200 ppm (Phakopsora pachyrhizi) | inhibition of growth at 20 ppm [3]

CC(C)C(=O)NCc1ccc(-c2noc(C(F)(F)F)n2)c(F)c1 [Compound 1.77, N-[[3-fluoro-4-[5-(trifluoromethyl)-1,2,4-oxadiazol-3-yl]phenyl]methyl]-2-methyl-propanamide]
≥ 80%: pest or weed control at 200 ppm [1] | pest or weed control at 200 ppm [2] | pest or weed control at 200 ppm (Phakopsora pachyrhizi) | inhibition of growth at 20 ppm [3]

CCCC(=O)NCc1ccc(-c2noc(C(F)(F)F)n2)c(F)c1 [Compound 1.78, N-[[3-fluoro-4-[5-(trifluoromethyl)-1,2,4-oxadiazol-3-yl]phenyl]methyl]butanamide]
≥ 80%: pest or weed control at 200 ppm [1] | pest or weed control at 200 ppm [2] | pest or weed control at 200 ppm (Phakopsora pachyrhizi) | inhibition of growth at 20 ppm [3]

COCC(=O)NCc1ccc(-c2noc(C(F)(F)F)n2)c(F)c1 [Compound 1.80]
≥ 80%: pest or weed control at 200 ppm [1] | pest or weed control at 200 ppm [2] | pest or weed control at 200 ppm (Phakopsora pachyrhizi) | inhibition of growth at 20 ppm [3]

CC(C)C(=O)NCCc1ccc(-c2noc(C(F)(F)F)n2)cc1 [Compound 1.83, 2-methyl-N-[2-[4-[5-(trifluoromethyl)-1,2,4-oxadiazol-3-yl]phenyl]ethyl]propanamide]
≥ 80%: pest or weed control at 200 ppm [1] | pest or weed control at 200 ppm [2] | pest or weed control at 200 ppm (Phakopsora pachyrhizi) | inhibition of growth at 20 ppm [3]

CCCC(=O)NCCc1ccc(-c2noc(C(F)(F)F)n2)cc1 [Compound 1.84, N-[2-[4-[5-(trifluoromethyl)-1,2,4-oxadiazol-3-yl]phenyl]ethyl]butanamide]
≥ 80%: pest or weed control at 200 ppm [1] | pest or weed control at 200 ppm [2] | pest or weed control at 200 ppm (Phakopsora pachyrhizi) | inhibition of growth at 20 ppm [3]

COCCC(=O)NCCc1ccc(-c2noc(C(F)(F)F)n2)cc1 [Compound 1.85, 3-methoxy-N-[2-[4-[5-(trifluoromethyl)-1,2,4-oxadiazol-3-yl]phenyl]ethyl]propanamide]
≥ 80%: pest or weed control at 200 ppm [1] | pest or weed control at 200 ppm [2] | pest or weed control at 200 ppm (Phakopsora pachyrhizi) | inhibition of growth at 20 ppm [3]

COCC(=O)NCCc1ccc(-c2noc(C(F)(F)F)n2)cc1 [Compound 1.86, 2-methoxy-N-[2-[4-[5-(trifluoromethyl)-1,2,4-oxadiazol-3-yl]phenyl]ethyl]acetamide]
≥ 80%: pest or weed control at 200 ppm [1] | pest or weed control at 200 ppm [2] | pest or weed control at 200 ppm (Phakopsora pachyrhizi) | inhibition of growth at 20 ppm [3]

CCC(C)C(=O)NCCc1ccc(-c2noc(C(F)(F)F)n2)cc1 (centres unmarked) [Compound 1.87, 2-methyl-N-[2-[4-[5-(trifluoromethyl)-1,2,4-oxadiazol-3-yl]phenyl]ethyl]butanamide]
≥ 80%: pest or weed control at 200 ppm [1] | pest or weed control at 200 ppm [2] | pest or weed control at 200 ppm (Phakopsora pachyrhizi) | inhibition of growth at 20 ppm [3]

COCCCC(=O)NCCc1ccc(-c2noc(C(F)(F)F)n2)cc1 [Compound 1.89, 4-methoxy-N-[2-[4-[5-(trifluoromethyl)-1,2,4-oxadiazol-3-yl]phenyl]ethyl]butanamide]
≥ 80%: pest or weed control at 200 ppm [1] | pest or weed control at 200 ppm [2] | pest or weed control at 200 ppm (Phakopsora pachyrhizi) | inhibition of growth at 20 ppm [3]
